Reference: ChEMBL document CHEMBL1938391, “Design and synthesis of novel photoaffinity probes for study of the target proteins of oleanolic acid” (Bioorg Med Chem Lett, 2012)

Molecular target: T1, Glycogen phosphorylase, muscle form (Oryctolagus cuniculus, UniProt P00489)
T1 sequence (P00489 whole entry): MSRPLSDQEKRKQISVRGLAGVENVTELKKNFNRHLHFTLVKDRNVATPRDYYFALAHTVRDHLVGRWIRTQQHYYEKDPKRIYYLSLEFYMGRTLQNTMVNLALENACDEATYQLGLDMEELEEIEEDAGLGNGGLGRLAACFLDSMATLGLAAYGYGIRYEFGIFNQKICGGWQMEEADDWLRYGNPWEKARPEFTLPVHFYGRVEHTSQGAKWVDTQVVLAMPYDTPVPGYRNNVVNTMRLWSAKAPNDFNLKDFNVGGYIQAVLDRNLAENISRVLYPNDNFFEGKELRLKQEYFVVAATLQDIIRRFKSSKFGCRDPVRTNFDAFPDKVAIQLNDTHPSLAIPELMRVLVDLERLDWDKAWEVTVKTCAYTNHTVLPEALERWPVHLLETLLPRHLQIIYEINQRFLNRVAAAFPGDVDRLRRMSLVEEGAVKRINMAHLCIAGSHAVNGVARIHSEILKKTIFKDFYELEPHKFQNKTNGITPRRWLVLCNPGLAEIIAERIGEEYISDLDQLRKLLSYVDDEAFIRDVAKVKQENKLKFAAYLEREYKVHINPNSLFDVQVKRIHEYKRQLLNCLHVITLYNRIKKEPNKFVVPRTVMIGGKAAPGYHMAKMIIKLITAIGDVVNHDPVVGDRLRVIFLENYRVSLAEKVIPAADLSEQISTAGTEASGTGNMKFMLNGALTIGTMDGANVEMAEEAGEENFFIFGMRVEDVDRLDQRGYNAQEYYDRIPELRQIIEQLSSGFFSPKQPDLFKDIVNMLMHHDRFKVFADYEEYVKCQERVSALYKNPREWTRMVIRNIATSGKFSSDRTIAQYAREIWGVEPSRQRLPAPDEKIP
Experiment: Inhibition of rabbit muscle glycogen phosphorylase a assessed as release of phosphate from glucose-1-phosphate after 25 mins using malachite green staining

| IC50 | Structure (SMILES) |
| --- | --- |
| 115 µM | CC1(C)CC[C@]2(C(=O)O)CC[C@]3(C)C(=CC[C@@H]4[C@@]5(C)CC[C@H](OC(=O)COCCOCCNC(=O)c6ccc(C(=O)c7ccc(NC(=O)CN=[N+]=[N-])cc7)cc6)C(C)(C)[C@@H]5CC[C@]43C)[C@@H]2C1 |
| 41.1 µM | CC1(C)CC[C@]2(C(=O)O)CC[C@]3(C)C(=CC[C@@H]4[C@@]5(C)CC[C@H](OC(=O)COCCOCCNC(=O)c6ccc(C(=O)c7ccc(NC(=O)CCCC[C@@H]8SC[C@@H]9NC(=O)N[C@@H]98)cc7)cc6)C(C)(C)[C@@H]5CC[C@]43C)[C@@H]2C1 |
